Source: publication PMC4858680, “A platinum-based hybrid drug design approach to circumvent acquired resistance to molecular targeted tyrosine kinase inhibitors” (Scientific Reports, 2016)

Columns and labels:
Assay in all cases: biochemical
Conditions in all cases: read-out: Percent control
AXL = biological target: T1, AXL (Homo sapiens, UniProt P30530)
T1 sequence (P30530 26-894): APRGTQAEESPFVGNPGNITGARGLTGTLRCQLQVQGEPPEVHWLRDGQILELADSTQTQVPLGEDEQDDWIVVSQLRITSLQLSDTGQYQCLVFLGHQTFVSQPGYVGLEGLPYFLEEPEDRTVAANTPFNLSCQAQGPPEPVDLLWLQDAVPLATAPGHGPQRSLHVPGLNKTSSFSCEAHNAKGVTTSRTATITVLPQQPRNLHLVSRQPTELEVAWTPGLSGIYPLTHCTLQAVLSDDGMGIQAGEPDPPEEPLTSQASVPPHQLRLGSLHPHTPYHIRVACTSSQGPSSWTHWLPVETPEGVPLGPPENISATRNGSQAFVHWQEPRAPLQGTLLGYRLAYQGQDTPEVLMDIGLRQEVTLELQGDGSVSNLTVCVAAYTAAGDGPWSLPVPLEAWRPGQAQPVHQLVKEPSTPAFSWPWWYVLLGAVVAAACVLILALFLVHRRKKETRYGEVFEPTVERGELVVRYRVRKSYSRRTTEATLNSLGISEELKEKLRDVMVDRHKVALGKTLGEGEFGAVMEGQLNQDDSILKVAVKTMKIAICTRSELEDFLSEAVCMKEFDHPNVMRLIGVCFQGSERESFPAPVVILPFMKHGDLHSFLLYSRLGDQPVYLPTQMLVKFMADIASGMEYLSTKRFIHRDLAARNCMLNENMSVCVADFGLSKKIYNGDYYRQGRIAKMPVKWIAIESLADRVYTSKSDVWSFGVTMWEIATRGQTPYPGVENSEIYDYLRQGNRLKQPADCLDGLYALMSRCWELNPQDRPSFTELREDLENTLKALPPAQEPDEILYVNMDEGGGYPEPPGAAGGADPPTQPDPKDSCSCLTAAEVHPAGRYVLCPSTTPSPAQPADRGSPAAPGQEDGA

ZAP70 = biological target: T2, ZAP70 (Homo sapiens, UniProt P43403)
T2 sequence (P43403 1-619): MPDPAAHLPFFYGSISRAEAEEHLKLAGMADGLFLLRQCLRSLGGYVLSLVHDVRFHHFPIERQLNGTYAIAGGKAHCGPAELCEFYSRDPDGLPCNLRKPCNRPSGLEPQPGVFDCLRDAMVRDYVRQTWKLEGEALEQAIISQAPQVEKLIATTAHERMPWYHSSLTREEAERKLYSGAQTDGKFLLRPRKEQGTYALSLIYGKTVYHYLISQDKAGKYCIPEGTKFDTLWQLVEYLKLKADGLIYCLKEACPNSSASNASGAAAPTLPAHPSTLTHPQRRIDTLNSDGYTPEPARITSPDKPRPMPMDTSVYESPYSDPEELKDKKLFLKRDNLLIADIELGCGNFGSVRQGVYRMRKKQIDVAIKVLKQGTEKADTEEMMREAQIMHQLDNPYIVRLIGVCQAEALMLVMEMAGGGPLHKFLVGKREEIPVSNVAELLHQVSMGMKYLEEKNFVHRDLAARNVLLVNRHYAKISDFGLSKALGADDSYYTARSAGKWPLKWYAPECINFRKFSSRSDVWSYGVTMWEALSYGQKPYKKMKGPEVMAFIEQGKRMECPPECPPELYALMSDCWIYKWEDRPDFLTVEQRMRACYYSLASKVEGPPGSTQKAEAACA

EGFR(L861Q) = EGFR(L861Q) (Homo sapiens, UniProt P00533, L861Q)
EGFR(L861Q), sequence (P00533 25-1210 L861Q): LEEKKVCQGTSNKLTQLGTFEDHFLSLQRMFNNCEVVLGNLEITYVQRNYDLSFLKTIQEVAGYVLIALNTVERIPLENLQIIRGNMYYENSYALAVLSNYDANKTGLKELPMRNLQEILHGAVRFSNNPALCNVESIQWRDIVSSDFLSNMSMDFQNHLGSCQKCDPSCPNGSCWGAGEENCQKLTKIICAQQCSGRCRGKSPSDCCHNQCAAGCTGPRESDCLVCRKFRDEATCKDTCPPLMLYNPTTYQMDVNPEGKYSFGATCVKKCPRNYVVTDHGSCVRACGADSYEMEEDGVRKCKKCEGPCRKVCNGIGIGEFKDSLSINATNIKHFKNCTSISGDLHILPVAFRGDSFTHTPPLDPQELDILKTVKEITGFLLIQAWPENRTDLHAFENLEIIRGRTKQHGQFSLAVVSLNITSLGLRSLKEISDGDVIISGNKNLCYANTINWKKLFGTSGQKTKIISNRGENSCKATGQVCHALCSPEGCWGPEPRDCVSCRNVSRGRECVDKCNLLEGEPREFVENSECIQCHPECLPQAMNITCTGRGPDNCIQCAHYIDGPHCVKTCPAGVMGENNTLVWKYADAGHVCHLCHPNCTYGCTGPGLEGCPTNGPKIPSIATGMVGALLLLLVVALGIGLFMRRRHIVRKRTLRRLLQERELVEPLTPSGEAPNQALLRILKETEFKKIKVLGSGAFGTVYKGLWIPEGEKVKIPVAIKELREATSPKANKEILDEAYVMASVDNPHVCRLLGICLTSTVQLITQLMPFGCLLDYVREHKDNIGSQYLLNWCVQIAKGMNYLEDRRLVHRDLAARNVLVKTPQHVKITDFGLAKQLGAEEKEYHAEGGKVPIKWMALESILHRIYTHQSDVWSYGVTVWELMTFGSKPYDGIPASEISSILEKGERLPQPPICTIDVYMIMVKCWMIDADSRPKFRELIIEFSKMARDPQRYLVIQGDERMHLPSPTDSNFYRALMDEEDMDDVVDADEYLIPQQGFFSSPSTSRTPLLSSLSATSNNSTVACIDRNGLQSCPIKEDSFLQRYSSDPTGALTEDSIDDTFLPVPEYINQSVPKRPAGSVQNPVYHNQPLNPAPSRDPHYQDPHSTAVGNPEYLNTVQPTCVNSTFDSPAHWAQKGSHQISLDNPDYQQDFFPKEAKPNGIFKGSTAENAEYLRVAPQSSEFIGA

ALK = ALK (Homo sapiens, UniProt Q9UM73)
ALK, sequence (Q9UM73 19-1620): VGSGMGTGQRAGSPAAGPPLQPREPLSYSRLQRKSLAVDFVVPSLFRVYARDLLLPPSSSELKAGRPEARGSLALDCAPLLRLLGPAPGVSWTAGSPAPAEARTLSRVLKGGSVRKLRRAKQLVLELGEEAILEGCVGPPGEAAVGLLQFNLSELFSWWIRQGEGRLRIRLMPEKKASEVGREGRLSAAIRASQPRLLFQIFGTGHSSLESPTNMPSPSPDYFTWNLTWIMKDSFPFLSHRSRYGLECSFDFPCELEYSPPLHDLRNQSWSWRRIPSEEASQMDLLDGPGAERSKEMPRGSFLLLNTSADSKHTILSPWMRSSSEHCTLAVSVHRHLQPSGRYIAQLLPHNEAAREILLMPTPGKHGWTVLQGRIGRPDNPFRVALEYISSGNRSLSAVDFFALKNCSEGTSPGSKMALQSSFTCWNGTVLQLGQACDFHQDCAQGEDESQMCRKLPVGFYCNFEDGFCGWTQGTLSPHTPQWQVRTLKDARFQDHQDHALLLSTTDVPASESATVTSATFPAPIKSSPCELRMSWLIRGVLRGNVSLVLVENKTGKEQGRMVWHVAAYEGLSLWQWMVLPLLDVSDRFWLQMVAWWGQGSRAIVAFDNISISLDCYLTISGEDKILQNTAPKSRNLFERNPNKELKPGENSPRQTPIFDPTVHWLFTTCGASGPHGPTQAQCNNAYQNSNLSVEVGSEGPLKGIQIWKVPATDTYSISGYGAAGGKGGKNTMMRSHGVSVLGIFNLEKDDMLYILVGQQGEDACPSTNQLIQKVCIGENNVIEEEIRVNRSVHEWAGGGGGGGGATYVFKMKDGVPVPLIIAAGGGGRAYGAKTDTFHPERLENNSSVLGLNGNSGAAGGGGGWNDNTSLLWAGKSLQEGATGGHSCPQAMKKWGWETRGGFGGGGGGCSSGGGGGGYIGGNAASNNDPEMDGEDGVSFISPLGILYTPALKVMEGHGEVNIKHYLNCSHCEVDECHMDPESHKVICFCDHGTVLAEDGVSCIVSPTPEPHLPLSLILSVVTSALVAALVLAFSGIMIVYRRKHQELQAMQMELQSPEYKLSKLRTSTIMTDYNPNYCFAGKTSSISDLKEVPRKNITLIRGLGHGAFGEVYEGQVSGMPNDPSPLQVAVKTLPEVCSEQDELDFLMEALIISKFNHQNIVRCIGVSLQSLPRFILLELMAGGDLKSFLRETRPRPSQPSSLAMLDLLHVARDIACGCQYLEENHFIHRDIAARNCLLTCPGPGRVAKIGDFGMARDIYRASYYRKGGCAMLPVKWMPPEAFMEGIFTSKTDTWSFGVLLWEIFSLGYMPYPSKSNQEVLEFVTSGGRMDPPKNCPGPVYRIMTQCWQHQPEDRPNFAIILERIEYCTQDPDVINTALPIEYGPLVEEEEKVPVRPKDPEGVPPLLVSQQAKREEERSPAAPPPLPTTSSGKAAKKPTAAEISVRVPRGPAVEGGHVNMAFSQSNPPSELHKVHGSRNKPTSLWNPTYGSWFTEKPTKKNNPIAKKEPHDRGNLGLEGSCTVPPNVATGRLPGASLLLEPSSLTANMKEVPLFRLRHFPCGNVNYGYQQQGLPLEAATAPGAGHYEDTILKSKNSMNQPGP

Structure (SMILES): COc1cc2c(Nc3ccc(Br)cc3F)ncnc2cc1OCC1CCN(C)CC1 [Vandetanib, reference compound]
- remaining activity at 10 µM (AXL): 2.4%
- remaining activity at 10 µM (ZAP70): 100%

Structure (SMILES): Cc1ccc(NC(=O)c2ccc(CN3CCN(C)CC3)cc2)cc1Nc1nccc(-c2cccnc2)n1 [Imatinib, reference compound]
- remaining activity at 10 µM (EGFR(L861Q)): 100%

Structure (SMILES): C#Cc1cccc(Nc2ncnc3cc(OCCOC)c(OCCOC)cc23)c1 [Erlotinib]
- remaining activity at 10 µM (ALK): 10.7%
